Measured values published in patent US6677373B2, “Polymorphic B form of 3-(cyclopropylmethoxy)-4-[4-(methylsulfonyl)phenyl]-5,5-dimethyl-5H-furan-2-one” (Merial Limited, priority 1999, dated 2004).

How the values were obtained:
Type in all cases: physicochemical
[1] = Thermodynamic stability of the polymorphs, DSC (Differential Scanning Calorimetry); conditions: for thermodynamic stability: compared with Polymorph A, monotropic system according to Burger's rule
Procedure: an endothermal peak around 90-100° C. due to melting of A form,
an exothermal peak corresponding to the transition A→B,
an endothermal peak around 120° C. due to melting of B form,
a very small exothermal peak corresponding to the transition A→B,
an endothermal peak due to melting of B form.
Therefore, the transition A→B is under kinetic control as usual in case of polymorphism. The transition from A to B may also be followed by X-Ray under heating (FIG. 7).

[2] = Carr Index (compressibility index, flowability) of unmilled product
Excerpt: After crystallization and before micronization, the Carr Index of B form is lower than 10 (in %). The Carr Index CI is defined as: [formula] where P is the packed bulk density (g cm^−3), L is the loose bulk density (g cm^−3). CI is also know as a compressibility index. A low figure for CI corresponds to a high degree of flowability. The Carr Index way be calculated from Mercury Intrusion Porosimetry or measured by Tap—Tap.

[3] = Solubility in methyltertiobutylether on recrystallization; conditions: solid at 6.3% weight in methyltertiobutylether
Excerpt: Recrystallization of polymorph A for purification purposes leaded to solubility problems in methyltertiobutylether.

CC1(C)OC(=O)C(OCC2CC2)=C1c1ccc(S(C)(=O)=O)cc1 [Polymorph B, 3-(cyclopropylmethoxy)-4-[4-(methylsulfonyl)phenyl]-5,5-dimethyl-5H-furan-2-one]
thermodynamic stability [1]: thermodynamically more stable than Polymorph A
thermodynamic stability ([1]; listed as B form): the most stable form
Carr Index ([2]; after crystallization and before micronization): lower than 10%
flow characteristics ([2]; compared with Polymorph A): better flow characteristics than Polymorph A
Carr Index ([2]; unmilled product, Recrystallisation in MTBE, Lab scale): 2 to 3%
Carr Index ([2]; unmilled product, Recrystallisation in MTBE, Pilot scale): 2 to 4%

CC1(C)OC(=O)C(OCC2CC2)=C1c1ccc(S(C)(=O)=O)cc1 [3-(cyclopropylmethoxy)-4-(4-methylsulfonyl)phenyl-5,5-dimethylfuranone]
solubility in methyltertiobutylether [3]: could no longer be solubilised

CC1(C)OC(=O)C(OCC2CC2)=C1c1ccc(S(C)(=O)=O)cc1 [Polymorph A, 3-(cyclopropylmethoxy)-4-[4-(methylsulfonyl)phenyl]-5,5-dimethyl-5H-furan-2-one]
behaviour when heated (DSC) ([1]; depending on the heating rate (40° C./mn, 2° C./mn)): transforms to form B
Carr Index ([2]; unmilled product, crystallisation process: Lab scale): 26 to 27%
Carr Index ([2]; unmilled product, crystallisation process: Pilot scale): 29 to 33%
